Laboratory results published in EP4660184A1 (Eurofarma Laboratórios S.A., priority 2023, dated 2024).

Legend:
[1] = target: T1, human sodium channels Nav 1.7 (Homo sapiens, UniProt Q15858); test: Automated whole-cell voltage-clamp (ScreenPatch 384P) sodium current block, Nav 1.7; assay type: cell-based; conditions: CHO cells stably expressing human Nav 1.7; inactivation step -40 mV for 8 seconds, test step 0 mV (TP1A); exposure at least five minutes; room temperature; mean if two or more assays; read-out: Nav1.7 IC50
T1 construct: expressed in transfected cells
Method: (§1) Biological assays were performed on Chinese hamster ovary (CHO) cells that express human sodium channels Nav 1.8 or Nav 1.7 in a stable manner.
(§2) The experimental protocol voltage-clamp using the whole cell configuration was established on the automated ScreenPatch® 384P platform (SP384PE, Nanion Technologies, Livingston, NJ) and the results were recorded with a Nanion 384-well Patch Clamp chip (NPC) (Nanion Technologies, Livingston, NJ).
(§3) Formula I compounds were diluted in eight concentrations in the extracellular solution composed of saline saline solution, buffered with HEPES (mM): NaCl, 137; KCl, 4; CaCl2, 3,8; MgCl2, 1; HEPES, 10; Glucose, 10; pH 7.4. The […], 50; CsF, 90; MgCl2, 5; EGTA, 5; HEPES, 10; pH 7.2. The duration of exposure of each compound with cells expressing Nav 1.7 or Nav 1.8 was at least five minutes and the assays were performed at room temperature.
(§4) The measurements of the sodium currents of Nav 1.8 and Nav 1.7 were obtained using the voltage protocol described below.
(§5) A holding voltage of -100 mV was established followed by an inactivation voltage step at -40 mV for 8 seconds, followed by a step of -100 mV for 20 ms, followed by a 20 ms step for 10 mV for Nav 1.8 or 0 mV for Nav 1.7 (TP1A) before returning to the holding voltage of -100 mV.
(§6) The protocol was repeated at a frequency of 0.05 Hz and the amplitude of the current was quantified throughout the recording of the TP1A phase. The variation in the amplitude of the peak current was evaluated according to the formula described below, after exposing the cells expressing the channels to each concentration of the different compounds: % Block = (1−(ITP1A,molecule/ITP1A,basal)×100%, [formula] wherein ITP1A,basal and ITP1A,molecule represent the peaks of sodium current input into TP1A before exposure to the compound and in the presence of the compound, respectively.
(§7) Data were obtained by nonlinear regression (nonlinear least squares) with XLfit for Excel (Microsoft, Redmond, WA).
(§8) The compounds were tested in at least one assay to obtain the value of CI50. For compounds that were tested in two or more assays, the results are described as the mean of the CI50 values.

[2] = target: T2, human sodium channels Nav 1.8 (Homo sapiens, UniProt Q9Y5Y9); test: Automated whole-cell voltage-clamp (ScreenPatch 384P) sodium current block, Nav 1.8; assay type: cell-based; conditions: CHO cells stably expressing human Nav 1.8; inactivation step -40 mV for 8 seconds, test step 10 mV (TP1A); exposure at least five minutes; room temperature; mean if two or more assays; read-out: Nav1.8 IC50
T2 construct: expressed in transfected cells
Method: as §1, §2, §3, §4, §5, §6, §7, §8

T1 sequence (Q15858 whole entry): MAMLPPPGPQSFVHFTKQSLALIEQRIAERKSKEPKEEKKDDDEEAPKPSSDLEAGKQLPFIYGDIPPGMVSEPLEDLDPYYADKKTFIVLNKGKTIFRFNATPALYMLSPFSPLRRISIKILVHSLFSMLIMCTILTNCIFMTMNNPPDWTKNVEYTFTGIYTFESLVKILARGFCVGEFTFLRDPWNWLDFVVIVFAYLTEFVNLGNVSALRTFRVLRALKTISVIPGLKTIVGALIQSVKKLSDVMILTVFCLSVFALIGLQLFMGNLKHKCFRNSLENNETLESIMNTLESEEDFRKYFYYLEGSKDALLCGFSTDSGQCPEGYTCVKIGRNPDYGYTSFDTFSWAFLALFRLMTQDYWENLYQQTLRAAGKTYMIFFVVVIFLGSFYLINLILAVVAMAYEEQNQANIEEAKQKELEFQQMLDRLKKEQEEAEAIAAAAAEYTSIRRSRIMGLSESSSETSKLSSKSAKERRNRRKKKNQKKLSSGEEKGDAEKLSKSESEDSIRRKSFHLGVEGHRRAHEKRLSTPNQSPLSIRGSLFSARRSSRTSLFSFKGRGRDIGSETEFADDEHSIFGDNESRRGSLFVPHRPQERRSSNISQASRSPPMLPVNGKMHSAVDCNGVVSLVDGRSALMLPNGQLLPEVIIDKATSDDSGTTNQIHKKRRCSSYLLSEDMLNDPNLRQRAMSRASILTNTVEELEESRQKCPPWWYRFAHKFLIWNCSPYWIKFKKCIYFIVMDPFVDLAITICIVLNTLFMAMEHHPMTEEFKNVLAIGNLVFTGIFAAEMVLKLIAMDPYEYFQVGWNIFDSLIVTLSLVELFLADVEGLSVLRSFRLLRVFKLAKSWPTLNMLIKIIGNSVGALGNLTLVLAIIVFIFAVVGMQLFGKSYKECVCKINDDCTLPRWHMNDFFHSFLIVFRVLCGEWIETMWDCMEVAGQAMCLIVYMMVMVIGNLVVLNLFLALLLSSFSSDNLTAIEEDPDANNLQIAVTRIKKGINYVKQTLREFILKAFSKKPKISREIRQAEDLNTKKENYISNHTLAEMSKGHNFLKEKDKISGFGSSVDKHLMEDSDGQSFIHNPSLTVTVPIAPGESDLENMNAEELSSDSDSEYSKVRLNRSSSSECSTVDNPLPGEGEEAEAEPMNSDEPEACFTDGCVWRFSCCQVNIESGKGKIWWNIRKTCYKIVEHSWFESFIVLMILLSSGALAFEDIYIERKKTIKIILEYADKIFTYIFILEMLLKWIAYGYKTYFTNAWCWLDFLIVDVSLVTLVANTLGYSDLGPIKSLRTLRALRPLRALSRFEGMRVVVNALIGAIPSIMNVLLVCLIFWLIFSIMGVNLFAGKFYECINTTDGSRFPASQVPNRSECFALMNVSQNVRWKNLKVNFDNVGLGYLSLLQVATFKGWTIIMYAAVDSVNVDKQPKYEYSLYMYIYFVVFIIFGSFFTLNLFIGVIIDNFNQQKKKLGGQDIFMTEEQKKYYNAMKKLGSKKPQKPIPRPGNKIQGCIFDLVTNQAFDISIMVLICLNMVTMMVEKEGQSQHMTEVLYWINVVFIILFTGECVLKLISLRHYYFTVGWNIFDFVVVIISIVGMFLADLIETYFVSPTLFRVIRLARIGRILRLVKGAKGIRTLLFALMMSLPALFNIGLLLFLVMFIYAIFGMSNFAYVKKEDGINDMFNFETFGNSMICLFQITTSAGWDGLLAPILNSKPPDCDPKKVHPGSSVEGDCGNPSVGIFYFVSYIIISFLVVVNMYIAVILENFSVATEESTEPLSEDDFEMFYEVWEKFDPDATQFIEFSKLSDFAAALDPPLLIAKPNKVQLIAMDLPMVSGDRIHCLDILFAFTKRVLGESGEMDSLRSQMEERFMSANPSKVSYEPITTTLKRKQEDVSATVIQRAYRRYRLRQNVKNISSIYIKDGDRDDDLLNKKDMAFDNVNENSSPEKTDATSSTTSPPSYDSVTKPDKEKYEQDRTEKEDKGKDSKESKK
T2 sequence (Q9Y5Y9 whole entry): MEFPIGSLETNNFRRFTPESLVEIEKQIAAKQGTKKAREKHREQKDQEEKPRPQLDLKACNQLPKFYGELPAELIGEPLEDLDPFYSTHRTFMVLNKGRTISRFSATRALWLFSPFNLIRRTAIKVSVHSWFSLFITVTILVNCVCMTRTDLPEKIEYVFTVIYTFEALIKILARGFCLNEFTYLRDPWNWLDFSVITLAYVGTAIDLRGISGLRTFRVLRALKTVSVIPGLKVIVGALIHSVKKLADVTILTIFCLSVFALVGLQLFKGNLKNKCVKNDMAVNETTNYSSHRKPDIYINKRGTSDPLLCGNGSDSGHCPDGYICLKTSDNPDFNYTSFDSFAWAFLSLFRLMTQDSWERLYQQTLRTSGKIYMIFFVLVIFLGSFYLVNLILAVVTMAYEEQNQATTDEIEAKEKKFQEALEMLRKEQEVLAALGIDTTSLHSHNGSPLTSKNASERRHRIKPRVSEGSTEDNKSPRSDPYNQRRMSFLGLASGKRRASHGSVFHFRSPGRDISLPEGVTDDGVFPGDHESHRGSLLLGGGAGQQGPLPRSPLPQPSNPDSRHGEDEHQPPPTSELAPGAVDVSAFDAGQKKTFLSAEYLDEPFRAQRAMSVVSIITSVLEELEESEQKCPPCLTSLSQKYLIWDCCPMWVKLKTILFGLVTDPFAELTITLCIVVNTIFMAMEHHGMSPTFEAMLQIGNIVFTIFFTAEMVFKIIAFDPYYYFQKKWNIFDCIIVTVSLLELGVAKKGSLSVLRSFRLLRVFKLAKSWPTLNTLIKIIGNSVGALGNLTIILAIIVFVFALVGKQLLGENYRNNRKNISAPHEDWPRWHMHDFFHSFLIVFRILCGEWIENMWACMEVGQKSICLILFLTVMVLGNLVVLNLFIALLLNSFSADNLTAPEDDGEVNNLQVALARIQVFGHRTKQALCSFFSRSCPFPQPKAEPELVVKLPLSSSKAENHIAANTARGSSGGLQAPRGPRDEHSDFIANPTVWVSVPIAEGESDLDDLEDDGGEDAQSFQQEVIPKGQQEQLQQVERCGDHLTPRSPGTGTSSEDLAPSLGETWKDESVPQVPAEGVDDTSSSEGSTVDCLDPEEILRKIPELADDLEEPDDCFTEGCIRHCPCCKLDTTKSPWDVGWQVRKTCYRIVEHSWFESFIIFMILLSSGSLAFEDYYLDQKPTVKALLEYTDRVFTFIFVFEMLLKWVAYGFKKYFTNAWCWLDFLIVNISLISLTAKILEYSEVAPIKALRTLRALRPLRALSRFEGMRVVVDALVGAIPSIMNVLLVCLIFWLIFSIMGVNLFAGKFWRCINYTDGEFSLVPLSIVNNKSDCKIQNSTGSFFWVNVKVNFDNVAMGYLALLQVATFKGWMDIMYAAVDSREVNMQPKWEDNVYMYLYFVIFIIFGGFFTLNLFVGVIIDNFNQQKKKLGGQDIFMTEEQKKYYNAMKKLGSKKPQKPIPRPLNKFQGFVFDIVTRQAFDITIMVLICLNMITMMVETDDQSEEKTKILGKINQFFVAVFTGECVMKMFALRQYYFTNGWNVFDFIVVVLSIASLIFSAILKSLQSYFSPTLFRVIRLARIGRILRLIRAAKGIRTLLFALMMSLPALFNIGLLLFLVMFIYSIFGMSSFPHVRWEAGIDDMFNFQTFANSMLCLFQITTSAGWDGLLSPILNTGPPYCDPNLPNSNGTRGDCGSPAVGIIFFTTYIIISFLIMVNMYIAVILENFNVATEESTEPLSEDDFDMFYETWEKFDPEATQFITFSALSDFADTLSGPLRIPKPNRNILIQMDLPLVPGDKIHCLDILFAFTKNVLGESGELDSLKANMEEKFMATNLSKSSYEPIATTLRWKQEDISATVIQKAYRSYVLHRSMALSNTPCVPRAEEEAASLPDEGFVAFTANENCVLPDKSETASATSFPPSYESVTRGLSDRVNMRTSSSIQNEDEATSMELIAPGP

SMILES | IC50 [1] [nM] | IC50 [2] [nM]
[2H]C([2H])([2H])Oc1ccc(F)c(CONC(=O)c2cncc(-c3ccc(OC(F)F)nc3)n2)c1 [Compound 83] | > 1000 | > 1000
CCOc1ccc(-c2cncc(C(=O)NOCc3cc(OC)cc(OC)c3)n2)cc1 [Compound 20, N-((3,5-dimethoxybenzyl)oxy)-6-(4-ethoxyphenyl)pyrazine-2-carboxamide] | > 1000 | > 1000
[2H]C([2H])([2H])Oc1ccc(F)c(CONC(=O)c2cncc(-c3ccc(OCC)nc3)n2)c1 [Compound 55, 6-(6-ethoxypyridine-3-yl)-N-((2-fluoro-5-(methoxy-d3)benzyl)oxy)pyrazine-2-carboxamide] | 500 to 1000 | < 500
CCOc1ccc(-c2nc(C(=O)NOCc3cc(OC)ccc3F)cnc2F)cn1 [Compound 104] | > 1000 | < 500
COc1ccc(F)c(CONC(=O)c2cncc(-c3ccc(OC(F)F)nc3)n2)c1 [Compound 77] | > 1000 | > 1000
CCOc1ccc(-c2cncc(C(=O)NOCc3cccc(OC)c3)n2)cc1 [Compound 5, 6-(4-ethoxyphenyl)-N-((3-methoxybenzyl)oxy)pyrazine-2-carboxamide] | > 1000 | < 500
[2H]C([2H])([2H])COc1ccc(-c2cncc(C(=O)NOCc3cc(OC)ccc3F)n2)cn1 [Compound 49, 6-(6-(ethoxy-2,2,2-d3)pyridine-3-yl)-N-((2-fluoro-5-methoxybenzyl)oxy)pyrazine-2-carboxamide] | > 1000 | > 1000
CCOc1ccc(-c2nccc(C(=O)NOCc3cc(OC)cnc3F)n2)cn1 [Compound 110] | 500 to 1000 | < 500
COc1cnc(F)c(CONC(=O)c2cncc(-c3ccc(OC(F)F)nc3)n2)c1 [Compound 78] | > 1000 | > 1000
CCOc1ccc(-c2cccc(C(=O)NOCc3cc(OC)ccc3F)n2)cn1 [Compound 106] | > 1000 | > 1000
COc1cncc(CONC(=O)c2cncc(-c3ccc(OC(F)F)nc3)n2)c1 [Compound 82] | > 1000 | > 1000
COc1ccc(F)c(CONC(=O)c2cnc(F)c(-c3ccc(OC(F)F)nc3)n2)c1 [Compound 124] | > 1000 | > 1000
CCOc1ccc(-c2cc(O)nc(C(=O)NOCc3cc(OC)ccc3F)n2)cc1 [Compound 113] | > 1000 | < 500
CCOc1ccc(-c2cncc(C(=O)NOCc3cccn3C)n2)cn1 [Compound 60, 6-(6-ethoxypyridine-3-yl)-N-((1-methyl-1H-pyrrole-2-yl)methoxy)pyrazine-2-carboxamide] | 500 to 1000 | < 500
CN(C)c1ccc(F)c(CONC(=O)c2cncc(-c3ccc(OC(F)F)nc3)n2)c1 [Compound 81] | > 1000 | > 1000
CCOc1ccc(-c2cncc(C(=O)NOCc3ccccc3O)n2)cn1 [Compound 34, 6-(6-ethoxypyridine-3-yl)-N-((2-hydroxybenzyl)oxy)pyrazine-2-carboxamide] | > 1000 | > 1000
CCOc1ccc(-c2cncc(C(=O)NOCc3cc(C)cc(C)c3)n2)cc1 [Compound 21, N-((3,5-dimethylbenzyl)oxy)-6-(4-ethoxyphenyl)pyrazine-2-carboxamide] | > 1000 | > 1000
CCOc1cc(C)c(-c2cncc(C(=O)NOCc3cc(OC)ccc3F)n2)cn1 [Compound 93] | > 1000 | > 1000
CCOc1ccc(-c2cnc(O)c(C(=O)NOCc3cc(OC)ccc3F)n2)cn1 [Compound 101] | > 1000 | > 1000
CCOc1ccc(-c2cncc(C(=O)NOCc3ccnn3C)n2)cn1 [Compound 58] | > 1000 | > 1000

SMILES | IC50 [1] [nM] | IC50 [2] [nM]
CCOc1ccc(-c2cncc(C(=O)NOCc3cc(OC)ccc3F)n2)c(OC)c1 [Compound 87] | > 1000 | < 500
CCOc1ccc(-c2cncc(C(=O)NOCc3cc(OC)ccc3C)n2)cc1 [Compound 19, 6-(4-ethoxyphenyl)-N-((5-methoxy-2-methylbenzyl)oxy)pyrazine-2-carboxamide] | > 1000 | > 1000
CCOc1ccc(-c2cncc(C(=O)NOCc3[nH]ccc3C#N)n2)cn1 [Compound 68] | > 1000 | > 1000
CCOc1ccc(-c2cncc(C(=O)NOCc3cc(OC)ccc3F)n2)cc1O [Compound 89] | > 1000 | < 500
COc1ccc(F)c(CONC(=O)c2cncc(-c3ccc(OC4CNC4)cc3)n2)c1 [Compound 22, 6-(4-(azetidin-3-yloxy)phenyl)-N-((2-fluoro-5-methoxybenzyl)oxy)pyrazine-2-carboxamide] | > 1000 | > 1000
CCOc1ccc(-c2cncc(C(=O)NOCc3ocnc3C)n2)cn1 [Compound 65, 6-(6-ethoxypyridine-3-yl)-N-((4-methyloxazole-5-yl)methoxy)pyrazine-2-carboxamide] | > 1000 | > 1000
COc1ccc(F)c(CONC(=O)c2cncc(-c3ccc(O)cc3)n2)c1 [Compound 1, N-((2-fluoro-5-methoxybenzyl)oxy)-6-(4-hydroxyphenyl)pyrazine-2-carboxamide] | > 1000 | > 1000
CCOc1ccc(-c2cncc(C(=O)NOCc3cc(N(C)C)cnc3F)n2)cn1 [Compound 42, N-((5-(dimethylamino)-2-fluoropyridine-3-yl)methoxy)-6-(6-ethoxypyridine-3-yl)pyrazine-2-carboxamide] | > 1000 | < 500
CCOc1ccc(-c2cncc(C(=O)NOCc3ccnn3CC)n2)cn1 [Compound 62, 6-(6-ethoxypyridine-3-yl)-N-((1-ethyl-1H-pyrazole-5-yl)methoxy)pyrazine-2-carboxamide] | > 1000 | > 1000
CCOc1ccc(-c2cncc(C(=O)NOCc3cc(OC)cnc3F)n2)cn1 [Compound 38, 6-(6-ethoxypyridine-3-yl)-N-((2-fluoro-5-methoxypyridine-3-yl)methoxy)pyrazine-2-carboxamide] | > 1000 | < 500
COc1ccc(F)c(CONC(=O)c2cncc(-c3ccc(OCC4CNC4)cc3)n2)c1 [Compound 23, 6-(4-(azetidine-3-ylmethoxy)phenyl)-N-((2-fluoro-5-methoxybenzyl)oxy)pyrazine-2-carboxamide] | > 1000 | > 1000
CCOc1ccc(-c2cncc(C(=O)NOCc3cc(OC)ccc3F)n2)c(OC)n1 [Compound 94] | > 1000 | > 1000
CCOc1ccc(-c2cncc(C(=O)NOCc3cc(O)ccc3F)n2)cc1 [Compound 14, 6-(4-ethoxyphenyl)-N-((2-fluoro-5-hydroxybenzyl)oxy)pyrazine-2-carboxamide] | > 1000 | < 500
COc1cnc(F)c(CONC(=O)c2ccnc(-c3ccc(OC(F)F)nc3)n2)c1 [Compound 117] | > 1000 | > 1000
CCOc1ccc(-c2cncc(C(=O)NOCc3[nH]ccc3C)n2)cn1 [Compound 67, 6-(6-ethoxypyridine-3-yl)-N-((3-methyl-1H-pyrrole-2-yl)methoxy)pyrazine-2-carboxamide] | > 1000 | < 500
COc1ccc(F)c(CONC(=O)c2cncc(-c3ccc(OCC4CN(C)C4)cc3)n2)c1 [Compound 26, N-((2-fluoro-5-methoxybenzyl)oxy)-6-(4-((1-methylazetidine-3-yl)methoxy)phenyl)pyrazine-2-carboxamide] | 500 to 1000 | < 500
CCOc1ccc(-c2cncc(C(=O)NOCc3c[nH]nc3C)n2)cn1 [Compound 69, 6-(6-ethoxypyridine-3-yl)-N-((3-methyl-1H-pyrazole-4-yl)methoxy)pyrazine-2-carboxamide] | > 1000 | > 1000
CCOc1ccc(-c2cncc(C(=O)NOCc3cc(OC)ccc3O)n2)cn1 [Compound 44, 6-(6-ethoxypyridine-3-yl)-N-((2-hydroxy-5-methoxybenzyl)oxy)pyrazine-2-carboxamide] | > 1000 | > 1000
COc1cc(CONC(=O)c2cncc(-c3ccc(OC(F)F)nc3)n2)c(F)cn1 [Compound 79, 6-(6-(difluoromethoxy)pyridine-3-yl)-N-((5-fluoro-2-methoxypyridine-4-yl)methoxy)pyrazine-2-carboxamide] | > 1000 | > 1000
